“And” between values parts separate entries of the source, which are not always exact repeats. Identical values can stand only once.
Assays:
[1] = Stability of radioligands over time by RP-HPLC; assay type: physicochemical
Procedure: Quality control of ^64Cu-labeled PSMA ligands (250 MBq in 120 μL; 50 MBq/nmol) was determined immediately after preparation (t=0 h) using RP-HPLC. The reaction mixtures were diluted in saline to an activity concentration of 250 MBq/500 μL and incubated at room temperature. The integrity of the compounds was investigated over one day (t=1 h, 4 h and 24 h, respectively). The amount of intact radioligand was quantified by integration of the product peak of the HPLC chromatograms in relation to the sum of all radioactive peaks of degradation products of unknown structure and traces of released ^64Cu which were set to 100%.
The stability of the radioligands was determined over time using RP-HPLC. […] The radiolabeling efficiency of the ligands was determined immediately after preparation (t=0 h) and the integrity of the compounds was investigated after incubation for various periods (t=1 h, 4 h and 24 h, respectively) at room temperature. The amount of intact compound was quantified by integration of the product peak of the HPLC chromatograms in relation to the sum of all radioactive peaks of degradation products of unknown structure and traces of free ^177Lu, which were set to 100%.

[2] = tested on: PC-3 PIP/flu tumor-bearing mice; experiment: Biodistribution studies in PC-3 PIP/flu tumor-bearing mice; conditions: for Tumor-to-blood / Tumor-to-kidney / Tumor-to-liver / Tu-to-muscle: PC-3 PIP tumor
PC-3 PIP tumor = experiment: Therapy study in PC-3 PIP tumor-bearing mice; assay type: in vivo; conditions: for TGDI2 / TGDI5: control = 1
Text: Mice of Groups B and D received 2 MBq of the radioligand (1 nmol/mouse), whereas mice of Groups C and E received 5 MBq of the radioligand (1 nmol/mouse). The mice were monitored by measuring body weights and the tumor size every other day over 12 weeks. Mice were euthanized when pre-defined endpoint criteria were reached, or when the study was terminated at Day 84. The relative body weight (RBW) was defined as [BWx/BW0], where BWx is the body weight in gram at a given day x and BW0 the body weight in gram at day 0. The tumor dimension was determined by measuring the longest tumor axis (L) and its perpendicular axis (W) with a digital caliper. The tumor volume (V) was calculated according to the equation [V=0.5*(L*W2)]. The relative tumor volume (RTV) was defined as [TVx/TV0], where TVx is the tumor volume in mm3 at a given day x and TV0 the tumor volume in mm3 at Day 0.
The efficacy of the radionuclide therapy was expressed as the tumor growth delay (TGDx), which was calculated as the time required for the tumor volume to increase x-fold over the initial volume at the Day 0. The tumor growth delay index [TGDIx=TGDx(T)/TGDx(C)] was calculated as the TGDx ratio of treated mice (T) over control mice (C) for a 2-fold (x=2, TGD2) and 5-fold (x=5, TGD5) increase of the initial tumor volume. As a measure to identify undesired side effects, body weights were compared at the day when the first control mouse had to be euthanized. After euthanasia, kidneys, liver and the brain were collected and weighed. The organ ratios (kidney-to-brain and liver-to-brain) were calculated using the organ masses obtained at the day of euthanasia.
The data was analyzed for significance as indicated in the result part using a one-way ANOVA with Tukey's multiple comparison post-test using GraphPad Prism software (version 7). A value of p<0.05 was considered statistically significant. Survival analysis was performed with Kaplan-Meier curves and a log-rank tests (Mantel Cox).

mouse plasma proteins = experiment: Ultrafiltration assay, binding to mouse plasma proteins; assay type: in vitro ADME
Procedure: Filter Assay. […] In addition, the radioligands were diluted in PBS (buffer solution without proteins) as a control experiment. Aliquots of the solutions were loaded onto an ultrafiltration device and centrifuged. The filtered activity was measured with a γ-counter and used for calculating the plasma protein-bound activity (retained on the filter membrane) as the percentage of total added activity. […] Statistical analysis (one-way ANOVA with Bonferroni's multiple comparison post-test) was performed using GraphPad Prism software, version 7. A p-value of <0.05 was considered statistically significant.

[3] = n-Octanol/PBS distribution coefficient (log D); assay type: physicochemical; conditions: radiolabeled ligand, 50 MBq/nmol, PBS pH 7.4
Procedure: The radioligand (0.5 MBq; 10 pmol, 25 μL) was then added to a reagent tube containing 1475 μL of PBS pH 7.4 and 1500 μL of n-octanol. The vials were vortexed vigorously followed by a centrifugation step for phase separation.
Determination of n-Octanol/PBS Distribution Coefficients (Log D Values). The distribution coefficients (log D values) of the ^64Cu-labeled radioligands (50 MBq/nmol) were determined by a shake-flask method using liquid-liquid extraction followed by phase separation as previously reported. Three experiments were performed with five replicates for each radioligand. Statistical significance of the data (p<0.05) was evaluated using an unpaired t-test (GraphPad Prism software, version 7).
Determination of n-Octanol/PBS Distribution Coefficients (Log D Values). […] A sample of the radioligands was mixed with phosphate-buffered saline (PBS) and n-octanol followed by vigorous vortexing. […] Three experiments were performed with five replicates for each compound.

[4] = tested on: PSMA-negative PC-3 flu cells; experiment: Cell uptake in PSMA-negative PC-3 flu cells; assay type: cell-based
Procedure: Cells were grown in RPMI cell culture medium supplemented with 10% fetal calf serum, L-glutamine, antibiotics and puromycin (2 μg/mL) at 37° C. and 5% CO2 (standard conditions). Routine cell culture was performed twice a week using PBS/EDTA (2 mM) for washing the cells and trypsin for detachment of the cells. The cells were seeded in 12-well plates (˜3×10^5 cells in 2 mL RPMI medium/well) allowing adhesion and growth overnight at standard conditions. The supernatant was removed and the cells washed with PBS pH 7.4 prior to the addition of RPMI medium without supplements (975 μL/well). […] After incubation, the cells were washed three times with ice-cold PBS and the total uptake of the radioligands was determined (PSMA-bound fraction on the surface and internalized fraction). The fraction of internalized radioligand was evaluated in cells washed with ice-cold PBS, followed by a 10 min incubation with stripping buffer (0.05 M glycine stripping buffer in 100 mM NaCl, pH 2.8) and an additional washing step with ice-cold PBS. […] After homogenization of the cell suspensions, the protein concentration was determined for each sample using a Micro BCA Protein Assay kit (Pierce, Therma Scientific). The results were expressed as percentage of total added radioactivity per […]. […]

[5] = tested on: PSMA-positive PC-3 PIP cells; experiment: Cell uptake and internalization in PSMA-positive PC-3 PIP cells; assay type: cell-based
[6] = tested on: PC-3 PIP/flu tumor-bearing mice; experiment: PET/CT imaging of PC-3 PIP/flu tumor-bearing mice; assay type: in vivo; conditions: 16 h after injection
Procedure: PET/CT Imaging Studies. PET/CT experiments were performed at 1 h, 4 h and 24 h after injection of the radioligands (5 MBq/l nmol). Mice were injected into a lateral tail vein with the respective radioligand (5 MBq, 1 nmol, 100 μL) diluted in saline containing 0.05% BSA. PET/CT scans were performed using a small-animal PET/CT scanner (G8, Perkin Elmer, Massachusetts, U.S.) as previously reported. The PET scans lasted for 10 min and were followed by a CT scan of 1.5 min. During the in vivo scans, the mice were anesthetized with a mixture of isoflurane and oxygen. Reconstruction of acquired data was performed using the software of the provider of the G8 scanner. All images were prepared using VivoQuant post-processing software (version 3.0, inviCRO Imaging Services and Software, Boston USA). The images were prepared by cutting 2% of the lower scale to make the tumors, liver and kidneys best visible.

human plasma proteins = experiment: Ultrafiltration assay, binding to human plasma proteins; conditions: different dilutions of human plasma
Procedure: Therefore, the compounds were labeled with ^177Lu at a specific activity of 50 MBq/nmol and incubated in human plasma samples or PBS at room temperature. The free and plasma-bound fractions were separated using a centrifree ultrafiltration device (4104 centrifugal filter units [Millipore]; 30000 Da nominal molecular weight limit, methylcellulose micropartition membranes). The incubated solution was loaded to the ultrafiltration device and centrifuged at 2500 rpm for 40 min at 20° C. Samples from the filtrate were taken an analyzed for radioactivity in a gamma-counter. The amount of plasma-bound compound was calculated as the fraction of radioactivity measured in the filtrate relative to the corresponding loading solution (set to 100%).
Determination of Albumin-binding Properties. The binding of the radioligands to human plasma proteins was determined by an ultrafiltration assay. […] Three independent experiments were performed in duplicates with both radioligands and the data was fitted to a semi-logarithmic plot (non-linear regression, one-site, specific binding) to obtain the half maximum binding (B50) in GraphPad Prism software (version 7).
The ^177Lu-labeled PSMA ligands (50 MBq/nmol) were diluted in mouse plasma (Rockland, USA) and human plasma (Stiftung Blutspende SRK Aargau-Solothurn, Switzerland), respectively, and incubated for 15 min at room temperature. In addition, the radioligands were diluted in PBS (buffer solution without proteins) as a control experiment. Aliquots of the solutions were loaded onto an ultrafiltration device and centrifuged. The filtered activity was measured with a γ-counter and used for calculating the plasma protein-bound activity (retained on the filter membrane) as the percentage of total added activity. […] Statistical analysis (one-way ANOVA with Bonferroni's multiple comparison post-test) was performed using GraphPad Prism software, version 7. A p-value of <0.05 was considered statistically significant.

[7] = non-decay-corrected biodistribution data up to 192 h p.i.

O=C([O-])CN1CCN(CC(=O)[O-])CCN(CC(=O)NCC2CCC(C(=O)N[C@@H](Cc3ccc4ccccc4c3)C(=O)NCCCC[C@H](NC(=O)N[C@@H](CCC(=O)O)C(=O)O)C(=O)O)CC2)CCN(CC(=O)[O-])CC1.[177Lu+3] (some centres unmarked) [^177Lu-PSMA-617, reference compound]
intact compound ([1]; after 4 h, absence of L-ascorbic acid): ~86%
intact compound ([1]; after 24 h, absence of L-ascorbic acid): < 2%
intact compound ([1]; after 24 h, with L-ascorbic acid): > 98%
PC-3 PIP Tumor ([2]; 4 h p.i.): ~56 % IA/g
Kidneys ([2]; 24 h p.i.): < 1 % IA/g
Tumor-to-blood ([2]; 24 h p.i.): 2730 ± 195
Tumor-to-kidney ([2]; 24 h p.i.): 49 ± 3.7
Tumor-to-liver ([2]; 24 h p.i.): 528 ± 51
Tumor-to-blood ([2]; 48 h p.i.): 3776 ± 585
Tumor-to-kidney ([2]; 48 h p.i.): 81 ± 11
Tumor-to-liver ([2]; 48 h p.i.): 710 ± 97
PC-3 PIP Tumor ([2]; 192 h p.i.): ~20 % IA/g
AUC PC-3 PIP tumor [2, 7]: 3691 ± 156 % IA/g · h
AUC blood [2, 7]: 52 ± 1.5 % IA/g · h
AUC kidneys [2, 7]: 99 ± 11 % IA/g · h
AUC liver [2, 7]: 6.2 ± 1.6 % IA/g · h
Ratio of AUCs AUCTu-to-AUCBl ([2]; tumor to blood): 71
Ratio of AUCs AUC-Tu-to-AUC-Ki ([2]; tumor to kidneys): 37
Ratio of AUCs AUCTu-to-AUCLi ([2]; tumor to liver): 592
first mouse of group euthanized (PC-3 PIP tumor; 2 MBq/mouse (Groups B, D)): 12 days
median survival (PC-3 PIP tumor; 2 MBq/mouse (Groups B, D)): 19 days
TGDI2 (PC-3 PIP tumor; 2 MBq/mouse (Groups B, D)): 0.8 and 0.8 ± 0.3
TGDI5 (PC-3 PIP tumor; 2 MBq/mouse (Groups B, D)): 1.4 and 1.4 ± 0.1
first mouse of group euthanized (PC-3 PIP tumor; 5 MBq/mouse (Groups C, E)): 26 days
median survival (PC-3 PIP tumor; 5 MBq/mouse (Groups C, E)): 32 days
TGDI2 (PC-3 PIP tumor; 5 MBq/mouse (Groups C, E)): 2.1 ± 0.3
TGDI5 (PC-3 PIP tumor; 5 MBq/mouse (Groups C, E)): 2.5 ± 0.3
plasma protein-bound fraction (mouse plasma proteins): 9.3±1.1%
n-octanol/PBS distribution coefficient (log D value) [3]: −4.4±0.15
uptake in PC-3 flu cells [4]: below 0.5%
cell uptake ([5]; 4 h incubation, PC-3 PIP cells): 58%
internalized fraction ([5]; 4 h incubation, PC-3 PIP cells): 12%

Cc1ccc(CCCC(=O)NCCCC[C@H](NC(=O)CCC(C(=O)O)N2CCN(CC(=O)O)CCN(CC(=O)O)CC2)C(=O)NC[C@H]2CC[C@H](C(=O)N[C@H](Cc3ccc4ccccc4c3)C(=O)NCCCC[C@@H](NC(=O)N[C@H](CCC(=O)O)C(=O)O)C(=O)O)CC2)cc1 (some centres unmarked) [^64Cu-PSMA-ALB-89, metal not drawn]
Tu-to-muscle ([2]; 1 h p.i.): 9.0 ± 1.13
Tumor-to-blood ([2]; 1 h p.i.): 0.91 ± 0.02
Tumor-to-kidney ([2]; 1 h p.i.): 0.40 ± 0.02
Tumor-to-liver ([2]; 1 h p.i.): 3.37 ± 0.31
Tu-to-muscle ([2]; 4 h p.i.): 36.3 ± 2.25
Tumor-to-blood ([2]; 4 h p.i.): 3.61 ± 0.30
Tumor-to-kidney ([2]; 4 h p.i.): 0.70 ± 0.04
Tumor-to-liver ([2]; 4 h p.i.): 13.3 ± 1.20
Blood ([2]; 24 h p.i.): < 3.2 % IA/g
PC-3 PIP Tumor ([2]; 24 h p.i.): 97.1±7.01 % IA/g
Tu-to-muscle ([2]; 24 h p.i.): 200±38.2
Tumor-to-blood ([2]; 24 h p.i.): 31.3 ± 3.82
Tumor-to-kidney ([2]; 24 h p.i.): 2.68 ± 0.36
Tumor-to-liver ([2]; 24 h p.i.): 23.6 ± 3.37
logD ([3]; n-octanol/PBS): -2.3 ± 0.7
tumor-to-kidney ratio of accumulated radioligand (visual examination) [6]: > 1
half-maximum binding (B50), [HSA]-to-[radioligand] ratio (human plasma proteins): 454 and 770
cell uptake ([5]; 2 h): ~46%
internalized fraction ([5]; 2 h): ~14%
cell uptake ([5]; 4 h): ~52%
internalized fraction ([5]; 4 h): ~14%

Reference: patent US11629201B2, “PSMA-binding agents and uses thereof” (ITM Isotope Technologies Munich SE, priority 2017, dated 2023)
